Reference: US20120302636A1, “METHOD OF TREATING A DISORDER ASSOCIATED WITH MTP” (priority 2009, published 2012)

Assays:
Type in all cases: in vivo, human
serum lipid levels [1] = experiment: Example 5: fixed-dose or escalating doses 12 weeks in hyperlipidemia, efficacy; conditions: for LDL-C level decrease: dose escalation group
Description: Fifty-two Japanese patients with hyperlipidemia (LDL-C between 140 and 220 mg/dL; TG≦400 mg/dL) participated in the study. […] One group received a fixed dose of 2 mg per tablet through the entire study. The other group received escalating doses of 0.5 mg (weeks 1-4), 1 mg (weeks 5-8), and 2 mg (weeks 9-12). For the efficacy analysis, 50 subjects were observed (25 in the fixed-dose group and 25 in the dose escalation group).
The objective of this study was preliminary evaluation of the efficacy (based on serum lipid levels), safety, and pharmacokinetics of the compound of formula (I) administered orally twice daily after breakfast and supper for 12 weeks as a fixed dose (4 mg/day) or escalating dose (1 mg/day, 2 mg/day and 4 mg/day) regimen in patients with hyperlipidemia.

[2] = system: gut hormone (GLP-1 active, PYY total, GIP total) levels; experiment: Example 9: gut hormone levels in obese male subjects; conditions: for increase in GLP-1 active compared with placebo / increase in PYY total compared with placebo: 4 hours after dinner
Description: The study enrolled 16 obese male subjects (18-65 years of age (inclusive), with a body mass index (BMI) >30.0 kg/m^2 and <40.0 kg/m^2) who participated in two treatment periods. During Period 1, 8 subjects were randomized to receive 3.5 mg of the compound of formula (I), and 8 subjects were randomized to receive placebo. The compound of formula (I) or placebo was administered twice daily (BID), 30 minutes after the start of breakfast and dinner, for 10 days. All subjects were discharged from the clinic at the end of Period 1 for a 9±2 day discharge period. Subjects then returned for treatment during Period 2, in which (i) the group previously receiving the compound of formula (I) now received placebo, and (ii) the group previously receiving placebo now received the compound of formula (I), in accordance with the protocol described above.
The primary objective of this study was to examine the change in gut hormone levels. The co-primary endpoints were trough gut hormone (glucagon-like peptide 1 (GLP-1) active, peptide tyrosine tyrosine (PYY) total, and gastric inhibitory polypeptide (GIP) total) levels on Day 10 in each treatment period and the trough gut hormone profile throughout the study. On Day 10 of each treatment period, statistically significant mean increases in GLP-1 active (60%) and PYY total (43%) were observed during administration of the compound of formula (I) compared with placebo, whereas no change in GIP total relative to placebo was found.

[3] = Example 2: repeated oral dose study of tablets QD or BID, safety
Description: (§1) Each tablet contained 5 mg (BID), 10 mg (QD), 20 mg (QD), or 30 mg (QD).

serum lipid levels [4] = experiment: Example 6: serum lipid levels / pharmacodynamics
Source text: Originally, the study was planned as 4 sequential cohorts of healthy male Caucasian subjects (Cohorts 1 to 4) followed by a cohort of male Caucasian patients with elevated triglycerides (HTG patients, Cohort 5). An additional cohort of healthy male Caucasian subjects (Cohort 4.1) was enrolled into the study (6 cohorts in total). The cohorts were as follows: Cohorts 1 to 4.1 had healthy Caucasian males, aged 18-45 years with a body weight of 60-100 kg and body mass index (BMI) between 19-28 kg/m^2 at screening and fasting triglycerides less than 1.69 mmol/L (less than 150 mg/dL) at the screening visit and Day-3. Cohort 5 had Caucasian males, aged 18-50 years with a body weight of 60-115 kg and BMI less than 35 kg/m^2 at screening and with elevated fasting triglycerides (TG≧1.69 mmol/L and <5.62 mmol/L; ≧150 mg/dL and <500 mg/dL) at the screening visit and Day-3.
The planned treatment for Cohorts 1 to 4 was twice daily administration of 5 mg, 10 mg or 15 mg the compound of formula (I)/placebo, or once daily administration of 30 mg the compound of formula (1)/placebo. […] As only the compound of formula (I) 5 mg capsules were supplied for this study, doses were administered once daily to determine the maximum tolerated dose, and the planned doses for each subsequent cohort were amended based on the safety and tolerability data obtained from the preceding cohort. The dose level and dosing schedule planned for the patients in Cohort 5 was determined by the maximum tolerated dose and dosing schedule as reported from the planned Cohorts 1 to 4.1.
Twelve healthy male Caucasian subjects were enrolled in each of Cohorts 1 to 4.1; dose cohorts were randomized in a ratio 9:3 to receive the compound of formula (I) or placebo, respectively, at the dose level associated with that cohort. Twelve male Caucasian patients with elevated triglycerides were randomized in a ratio of 8:4 to receive the compound of formula (I) or placebo, respectively, at the maximum tolerated dose level and dosing schedule.

[5] = Example 2: plasma and urine pharmacokinetics
Description: as §1

[6] = 10, 20, 30 mg QD, initial dose Day 1

## CCOC(=O)C(COC(=O)Cc1ccc(NC(=O)c2ccccc2-c2ccc(C(F)(F)F)cc2)c(C(=O)N(C)C)c1)(C(=O)OCC)c1ccccc1 [compound of formula (I), diethyl 2-((2-(3-(dimethylcarbamoyl)-4-(4′-(trifiuoromethyl)biphenyl-2-ylcarboxamido)phenyl)acetoxy)methyl)-2-phenyl malonate]
Serum lipid levels [1]; both groups
  TG level: tended to increase
Serum lipid levels [1]; Week 10 (4 mg/day)
  LDL-C level decrease: −7.24%
Serum lipid levels [1]; Week 12 (4 mg/day)
  LDL-C level decrease: −7.12%
Serum lipid levels [1]; fixed-dose group (2 mg BID), Week 2
  LDL-C level maximum decrease: −6.38%
Serum lipid levels [1]; fixed-dose group, after Week 2 through Week 12
  LDL-C level change: −1.96 to −5.98%
[2]; 3.5 mg BID, Day 10
  mean increase in trough GLP-1 active compared with placebo: 60%
  mean increase in trough PYY total compared with placebo: 43%
  trough GIP total relative to placebo: no change
[2]; Day 2
  increase in GLP-1 active compared with placebo: 38%
  increase in PYY total compared with placebo: 44%
[2]; Day 9
  increase in GLP-1 active compared with placebo: 71%
  increase in PYY total compared with placebo: 42%
  average increase in GLP-1 active around breakfast: 38%
  average increase in PYY total around breakfast: 51%
[2]; 4 hours post-dinner, Day 2 and Day 9
  GIP total relative to placebo: No statistically significant differences
[2]; Day 2, -0.5 to 3.5 hours relative to dosing
  gut hormone AUC profiles around breakfast: no significant changes
[2]; Day 2 or Day 9
  GIP total profile: No significant changes
[2]; Day 9, around breakfast
  decrease in AUC for GIP total compared with placebo: 17%
  increase in AUC for GLP-1 active compared with placebo: 31%
  increase in AUC for PYY total compared with placebo: 39%
[2]; days 2 through 11
  average increase in trough PYY total: 63%
[2]; days 3, 5 and 11
  average increase in trough GIP total: 24%
[2]; days 3 through 11
  average increase in trough GLP-1 active: 45%
[3]; 5 mg BID
  incidence of diarrhea: 100%
  incidence of moderate diarrhea: 66.7%
  incidence of vomiting (moderate): 16.7%
  number of diarrhea events: 7
  subjects with adverse events (incidence): 100.0%
  suitability as clinical dose for hyperlipidemic patients: inappropriate as a clinical dose
[3]; 10 mg QD
  subjects with adverse events (incidence): 50.0%
[3]; 20 mg QD
  incidence of diarrhea: 16.7%
  incidence of moderate diarrhea: 16.7%
  number of diarrhea events: One
  subjects with adverse events (incidence): 66.7%
[3]; 30 mg QD
  incidence of diarrhea: 66.7%
  incidence of moderate diarrhea: 50.0%
  number of diarrhea events: 4
  subjects with adverse events (incidence): 66.7%
  vitamin E levels: decreased on Day 7
[3]; 30 mg dose
  subjects with queasiness: 2 of 6 subjects
[3]; active group
  incidence of infection and infestation (SOC): 4.2%
  incidence of investigation (SOC): 20.8%
  incidence of metabolism and nutrition disorder (SOC): 4.2%
[3]; active group, 24 subjects
  incidence of gastrointestinal disorder (SOC): 58.3%
[3]; overall compound group
  incidence of CK increased: 12.5%
  incidence of abdomen enlarged feeling: 20.8%
  incidence of diarrhea: 45.8%
  incidence of loose stools: 20.8%
  incidence of stomach discomfort: 25.0%
  number of diarrhea events: Twelve
[3]; overall compound group, 24 subjects
  subjects with adverse events (incidence): 70.8%
[3]; remaining groups (10 mg QD, 20 mg QD, 5 mg BID)
  fat-soluble vitamin levels: did not decrease
[3]; tablets, 14 days
  death or serious adverse events: No death or other serious adverse events occurred
Serum lipid levels [4]; 5 mg BID
  effects on LDL-C, HDL-C, VLDL-C, and VLDL-TG vs QD regimens: more marked effects
Serum lipid levels [4]; healthy subjects and patients with high TG
  expected postprandial increase of TG and chylomicron-TG: suppressed
Serum lipid levels [4]; in vivo
  campesterol (marker of cholesterol absorption): affects campesterol
  lathosterol (marker of cholesterol synthesis by the liver): not lathosterol
Serum lipid levels [4]; once-daily regimen
  impact on triglyceride-rich lipoproteins (ApoCII, ApoCIII, VLDL-TG, VLDL-C): no discernible impact
[5]; 5 mg BID
  subjects with Cmin detected sporadically: 4 of 6 subjects
[5]; 10 mg QD, Day 2 to 14
  Cmin of the compound of formula (I): below the limit of quantization
[5]; 20 mg QD
  subjects with Cmin detected sporadically: 1 of 6 subjects
[5]; 30 mg QD
  subjects with Cmin detected sporadically: 4 of 6 subjects
[5]; [6]
  AUC0-24hr dose proportionality: greater than dose-proportional
  Cmax dose proportionality: greater than dose-proportional
[5]; after initial dose on Day 1, all groups
  plasma compound of formula (I): quantifiable
[5]; all groups
  compound in urine: not quantifiable in urine
[5]; all subjects
  Cmin of the compound of formula (I): less than 3 ng/mL
[5]; final dose on Day 14
  Cmax and AUC0-24hr dose proportionality: dose-proportional
